How the values were obtained:
OTUD1 = target: T1, OTUD1 (Homo sapiens, UniProt Q5VV17); test: biochemical; design: Ubiquigent DUB profiler selectivity panel, remaining enzyme activity as % of control; conditions: read-out: % of control remaining
T1 sequence (Q5VV17 1-481): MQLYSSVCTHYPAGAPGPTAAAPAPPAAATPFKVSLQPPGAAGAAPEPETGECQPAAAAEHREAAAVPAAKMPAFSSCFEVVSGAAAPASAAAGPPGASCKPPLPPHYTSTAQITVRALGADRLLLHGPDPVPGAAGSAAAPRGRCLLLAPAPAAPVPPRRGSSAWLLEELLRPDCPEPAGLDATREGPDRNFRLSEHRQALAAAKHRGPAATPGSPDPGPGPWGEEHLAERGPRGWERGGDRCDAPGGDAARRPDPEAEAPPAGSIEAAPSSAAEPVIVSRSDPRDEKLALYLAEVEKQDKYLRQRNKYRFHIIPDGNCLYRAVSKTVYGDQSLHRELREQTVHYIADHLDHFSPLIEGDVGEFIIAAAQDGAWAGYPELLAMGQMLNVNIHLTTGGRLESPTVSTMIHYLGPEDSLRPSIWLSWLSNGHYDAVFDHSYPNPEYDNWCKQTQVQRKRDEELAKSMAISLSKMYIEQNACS
In short: (§1)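 In YFP-PRKN-overexpressing hTERT-RPE1 cells, 1 h antimycin A plus oligomycin A (1 μM each) with CMPD-39, then Western blot of TOMM20 ubiquitylation. Target engagement: 2 h compound, then 10 min HA-Ub-PA at 37°C, read as USP30 shift. DUB panel (>40 enzymes) screened at 1-100 μM.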

USP8 = target: T2, USP8 (Homo sapiens, UniProt P40818); test: biochemical; design: Ubiquigent DUB profiler selectivity panel, remaining enzyme activity as % of control; conditions: read-out: % of control remaining
T2 sequence (P40818 1-1118): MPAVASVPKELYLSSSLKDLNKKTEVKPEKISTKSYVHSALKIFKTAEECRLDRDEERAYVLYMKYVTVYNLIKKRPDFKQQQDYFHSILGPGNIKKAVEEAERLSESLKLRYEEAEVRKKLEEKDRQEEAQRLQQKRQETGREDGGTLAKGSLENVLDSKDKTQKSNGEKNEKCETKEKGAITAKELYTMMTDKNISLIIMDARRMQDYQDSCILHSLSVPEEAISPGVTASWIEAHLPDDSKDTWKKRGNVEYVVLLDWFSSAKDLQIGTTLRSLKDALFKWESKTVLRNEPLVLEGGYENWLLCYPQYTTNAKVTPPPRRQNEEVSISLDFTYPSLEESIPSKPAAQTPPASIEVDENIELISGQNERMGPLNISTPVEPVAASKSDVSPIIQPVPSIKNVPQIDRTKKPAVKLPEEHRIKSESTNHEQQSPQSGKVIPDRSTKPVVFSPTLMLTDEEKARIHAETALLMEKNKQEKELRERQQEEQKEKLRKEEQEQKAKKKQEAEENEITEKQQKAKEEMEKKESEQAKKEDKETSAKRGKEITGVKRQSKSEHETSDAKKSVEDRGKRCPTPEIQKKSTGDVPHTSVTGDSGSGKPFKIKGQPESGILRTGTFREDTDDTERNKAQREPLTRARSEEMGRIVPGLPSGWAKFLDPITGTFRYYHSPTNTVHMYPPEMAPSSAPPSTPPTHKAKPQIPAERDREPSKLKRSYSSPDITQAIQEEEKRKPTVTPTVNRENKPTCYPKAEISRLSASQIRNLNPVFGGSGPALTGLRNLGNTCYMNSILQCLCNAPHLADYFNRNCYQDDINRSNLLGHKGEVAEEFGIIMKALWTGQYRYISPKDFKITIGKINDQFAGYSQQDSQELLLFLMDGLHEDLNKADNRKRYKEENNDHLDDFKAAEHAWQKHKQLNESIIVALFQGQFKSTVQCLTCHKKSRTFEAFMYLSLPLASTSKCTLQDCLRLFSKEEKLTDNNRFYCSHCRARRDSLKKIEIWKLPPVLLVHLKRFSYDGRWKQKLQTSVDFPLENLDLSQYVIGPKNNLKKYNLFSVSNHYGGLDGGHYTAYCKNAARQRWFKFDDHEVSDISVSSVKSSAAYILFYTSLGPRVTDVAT
In short: as §1

SMILES: CC(C)(C)NS(=O)(=O)c1ccc(NC(=O)[C@H](Cc2ccccc2)NC(=O)c2ccc(F)cc2)cc1 [compound 39, CMPD-39]
- remaining activity at 1 µM (OTUD1): 99.9%
- remaining activity at 10 µM (OTUD1): 93.4%
- remaining activity at 100 µM (OTUD1): 98%
- remaining activity at 1 µM (USP8): 105%
- remaining activity at 10 µM (USP8): 100%
- remaining activity at 100 µM (USP8): 102%
